In ChEMBL document CHEMBL1150095, “Antitumor activity and stereochemistry of acetylenic alcohols from the sponge Cribrochalina vasculum” (1995):
Activity calls are given as the source filed them. The rule behind the calls is not given here.

How the values were obtained:
[1] = system: IGROV-1; test: Antitumor activity against human IGROV1 cells; format: functional
[2] = system: NCI-H522; test: Antitumor activity against human NCI-H522 cells; format: functional

For `C#C[C@@H](O)/C=C/CCCCCCCCC/C=C\CCCCC(C)C`, the Activity [1] was “Active” and the Activity [2] was “Active”.
